Assay type in all cases: binding
One assay has as its target T1, KRAS G12D (Homo sapiens, UniProt P01116, G12D).
T1 construct: made in house; host or cells: E. coli, e.g. BL21 (DE3)
As to the kind of experiment: HTRF assay of K-Ras G12D interaction with SOS1 (PPI-HTRF). The note with it: HTRF, 5 nM KRAS G12D; read-out: PPI-HTRF-5 nM KRAS G12D. The method in brief:
(§1)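 HTRF on GST-K-Ras/His-hSOS1 was measured after ≥10 min in pH 7.4 HEPES buffer. IC50 values were derived from the ratiometric emission signal.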

The next assay concerns the target T2, KRAS WT (Homo sapiens, UniProt P01116).
T2 construct: made in house; host or cells: E. coli, e.g. BL21 (DE3)
As to the kind of experiment: HTRF assay of wildtype K-Ras interaction with SOS1 (PPI-HTRF). The settings on record: HTRF, 5 nM KRAS WT; read-out: PPI-HTRF-5 nM KRAS WT. The procedure, abridged: as §1

The next assay has as its target T3, KRAS G12S (Homo sapiens, UniProt P01116, G12S).
T3 construct: made in house; host or cells: E. coli, e.g. BL21 (DE3)
As to the kind of experiment: HTRF assay of K-Ras G12S interaction with SOS1 (PPI-HTRF). The note with it: 5 nM KRAS G12S, read-out: PPI-HTRF-5 nM KRAS G12S. The method in brief:
as §1
In general terms: In TR-FRET formats the signal depends on donor and acceptor labels being close together.

The structures appear in SMILES notation. Some results are limits rather than exact numbers.

T3 sequence (P01116 1-188 isoform P01116-2 G12S): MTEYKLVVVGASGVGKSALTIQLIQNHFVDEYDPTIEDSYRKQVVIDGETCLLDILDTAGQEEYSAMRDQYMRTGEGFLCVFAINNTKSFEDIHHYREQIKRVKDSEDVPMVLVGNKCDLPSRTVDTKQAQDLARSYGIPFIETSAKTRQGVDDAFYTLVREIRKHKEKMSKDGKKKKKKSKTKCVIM
T1 sequence (P01116 1-188 isoform P01116-2 G12D): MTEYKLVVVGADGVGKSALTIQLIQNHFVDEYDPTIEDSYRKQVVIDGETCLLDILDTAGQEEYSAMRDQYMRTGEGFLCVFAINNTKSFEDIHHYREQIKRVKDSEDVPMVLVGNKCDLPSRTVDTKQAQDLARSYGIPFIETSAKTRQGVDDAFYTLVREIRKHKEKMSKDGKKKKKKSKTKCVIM
T2 sequence (P01116 1-188 isoform P01116-2): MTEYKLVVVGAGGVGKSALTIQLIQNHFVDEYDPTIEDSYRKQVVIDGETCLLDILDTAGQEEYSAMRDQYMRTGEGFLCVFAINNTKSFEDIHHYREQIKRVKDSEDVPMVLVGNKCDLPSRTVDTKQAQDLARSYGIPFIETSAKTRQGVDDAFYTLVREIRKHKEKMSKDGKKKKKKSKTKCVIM

Turning to `C[C@H](Oc1nc(N2CCC3(CCN3C(=O)c3ccnn3C)C2)c2cc(Cl)c(-c3ccc(F)c4sc(N)c(C#N)c34)c(F)c2n1)[C@@H]1CCCN1C` (stereo partly drawn) [Compound 274, 2-amino-4-(6-chloro-8-fluoro-4-(1-(1-methyl-1H-pyrazole-5-carbonyl)-1,6-diazaspiro[3.4]octan-6-yl)-2-((S)-1-((S)-1-methylpyrrolidin-2-yl)ethoxy)quinazolin-7-yl)-7-fluorobenzo[b]thiophene-3-carbonitrile], the IC50 on KRAS G12D, on KRAS WT and on KRAS G12S was less than 5 µM in each case.

As to `N#Cc1c(N)sc2c(F)ccc(-c3c(Cl)cc4c(N5CCC6(CCN6C(=O)OC(C(F)(F)F)C(F)(F)F)C5)nc(OC[C@@]56CCCN5C[C@H](F)C6)nc4c3F)c12` (stereo partly drawn) [Compound 237, 1,1,1,3,3,3-hexafluoropropan-2-yl 6-(7-(2-amino-3-cyano-7-fluorobenzo[b]thiophen-4-yl)-6-chloro-8-fluoro-2-(((2R,7aS)-2-fluorotetrahydro-1H-pyrrolizin-7a(5H)-yl)methoxy)quinazolin-4-yl)-1,6-diazaspiro[3.4]octane-1-carboxylate], the IC50 was greater than 5 µM on KRAS G12D, less than 5 µM on KRAS WT and less than 5 µM at KRAS G12S.

On to `Nc1nc2c(-c3c(Cl)cc4c(N5CCCC6(CCCN6)C5)nc(OC[C@@]56CCCN5C[C@H](F)C6)nc4c3F)ccc(F)c2s1` (stereo partly drawn) [Compound 219, 4-(6-chloro-8-fluoro-2-(((2R,7aS)-2-fluorotetrahydro-1H-pyrrolizin-7a(5H)-yl)methoxy)-4-(1,7-diazaspiro[4.5]decan-7-yl)quinazolin-7-yl)-7-fluorobenzo[d]thiazol-2-amine], for which the IC50 on KRAS G12D, on KRAS WT and at KRAS G12S was less than 5 µM in each case.

Consider `Cc1nc(C(C)C)nn1C(=O)N1CCOCC12CCN(c1nc(OC[C@@]34CCCN3C[C@H](F)C4)nc3c(F)c(-c4ccc(F)c5sc(N)c(C#N)c45)c(Cl)cc13)C2` (stereo partly drawn) [Compound 337, 2-Amino-4-(6-chloro-8-fluoro-2-(((2R,7aS)-2-fluorotetrahydro-1H-pyrrolizin-7a(5H)-yl)methoxy)-4-(6-(3-isopropyl-5-methyl-1H-1,2,4-triazole-1-carbonyl)-9-oxa-2,6-diazaspiro[4.5]decan-2-yl)quinazolin-7-yl)-7-fluorobenzo[b]thiophene-3-carbonitrile], for which the IC50 on KRAS G12D, on KRAS WT and on KRAS G12S was less than 5 µM throughout.

Consider `N#Cc1cnn(C(=O)N2CCC23CCN(c2nc(OC[C@@]45CCCN4C[C@H](F)C5)nc4c(F)c(-c5ccc(F)c6sc(N)c(C#N)c56)c(Cl)cc24)C3)c1` (stereo partly drawn) [Compound 309, 1-(6-(7-(2-amino-3-cyano-7-fluorobenzo[b]thiophen-4-yl)-6-chloro-8-fluoro-2-(((2R,7aS)-2-fluorotetrahydro-1H-pyrrolizin-7a(5H)-yl)methoxy)quinazolin-4-yl)-1,6-diazaspiro[3.4]octane-1-carbonyl)-1H-pyrazole-4-carbonitrile], for which the IC50 at KRAS G12D, at KRAS WT and on KRAS G12S was less than 5 µM throughout.

As for `Cc1nc(C)n(C(=O)N2CC[C@@]23CCN(c2nc(OC[C@@]45CCCN4C[C@H](F)C5)nc4c(F)c(-c5ccc(F)c6sc(N)c(C#N)c56)c(Cl)cc24)C3)n1` [Compound 307, 2-amino-4-(6-chloro-4-((R)-1-(3,5-dimethyl-1H-1,2,4-triazole-1-carbonyl)-1,6-diazaspiro[3.4]octan-6-yl)-8-fluoro-2-(((2R,7aS)-2-fluorotetrahydro-1H-pyrrolizin-7a(5H)-yl)methoxy)quinazolin-7-yl)-7-fluorobenzo[b]thiophene-3-carbonitrile], the IC50 at KRAS G12D, at KRAS WT and on KRAS G12S was less than 5 µM throughout.

Consider `N#CCC1CN(c2nc(OC[C@@]34CCCN3C[C@H](F)C4)nc3c(F)c(-c4ccc(F)c5sc(N)c(C#N)c45)c(Cl)cc23)CC12CCN2C(=O)n1cnc(Cl)n1` (stereo partly drawn) [Compound 328, 2-amino-4-(6-chloro-4-(1-(3-chloro-1H-1,2,4-triazole-1-carbonyl)-8-(cyanomethyl)-1,6-diazaspiro[3.4]octan-6-yl)-8-fluoro-2-(((2R,7aS)-2-fluorotetrahydro-1H-pyrrolizin-7a(5H)-yl)methoxy)quinazolin-7-yl)-7-fluorobenzo[b]thiophene-3-carbonitrile], for which the IC50 at KRAS G12D, on KRAS WT and at KRAS G12S was less than 5 µM each time.

For `N#Cc1c(N)sc2c(F)ccc(-c3c(Cl)cc4c(N5CCC6(CCN6C(=O)n6cccc6C#N)C5)nc(OC[C@@]56CCCN5C[C@H](F)C6)nc4c3F)c12` (stereo partly drawn) [Compound 289, 1-(6-(7-(2-amino-3-cyano-7-fluorobenzo[b]thiophen-4-yl)-6-chloro-8-fluoro-2-(((2R,7aS)-2-fluorotetrahydro-1H-pyrrolizin-7a(5H)-yl)methoxy)quinazolin-4-yl)-1,6-diazaspiro[3.4]octane-1-carbonyl)-1H-pyrrole-2-carbonitrile], the IC50 at KRAS G12D, at KRAS WT and on KRAS G12S was less than 5 µM each time.

With `C[C@H](Oc1nc(N2CCCC3(CCN3C(=O)C3CC3(F)F)C2)c2cc(Cl)c(-c3ccc(F)c4sc(N)c(C#N)c34)c(F)c2n1)[C@@H]1CCCN1C` (stereo partly drawn) [Compound 223, 2-Amino-4-(6-chloro-4-(1-(2,2-difluorocyclopropane-1-carbonyl)-1,6-diazaspiro[3.5]nonan-6-yl)-8-fluoro-2-((S)-1-((S)-1-methylpyrrolidin-2-yl)ethoxy)quinazolin-7-yl)-7-fluorobenzo[b]thiophene-3-carbonitrile], the IC50 on KRAS G12D, on KRAS WT and on KRAS G12S was less than 5 µM each time.

With `N#Cc1c(N)sc2c(F)ccc(-c3c(Cl)cc4c(N5CCC6(CCCN6C(=O)n6cncn6)C5)nc(OC[C@@]56CCCN5C[C@H](F)C6)nc4c3F)c12` (stereo partly drawn) [Compound 261, 4-(4-(1-(1H-1,2,4-triazole-1-carbonyl)-1,7-diazaspiro[4.4]nonan-7-yl)-6-chloro-8-fluoro-2-(((2R,7aS)-2-fluorotetrahydro-1H-pyrrolizin-7a(5H)-yl)methoxy)quinazolin-7-yl)-2-amino-7-fluorobenzo[b]thiophene-3-carbonitrile], the IC50 on KRAS G12D, on KRAS WT and at KRAS G12S was less than 5 µM throughout.

On to `N#Cc1c(N)sc2c(F)ccc(-c3c(Cl)cc4c(N5CCCC6(CCN6)C5)nc(OC[C@@]56CCCN5C[C@H](F)C6)nc4c3F)c12` (stereo partly drawn) [Compound 236, 2-amino-4-(6-chloro-8-fluoro-2-(((2R,7aS)-2-fluorotetrahydro-1H-pyrrolizin-7a(5H)-yl)methoxy)-4-(1,6-diazaspiro[3.5]nonan-6-yl)quinazolin-7-yl)-7-fluorobenzo[b]thiophene-3-carbonitrile], for which the IC50 at KRAS G12D, at KRAS WT and on KRAS G12S was less than 5 µM throughout.

Take `Cc1ncn(C(=O)N2CCOCC23CCN(c2nc(OC[C@@]45CCCN4C[C@H](F)C5)nc4c(F)c(-c5ccc(F)c6sc(N)c(C#N)c56)c(Cl)cc24)C3)n1` (stereo partly drawn) [Compound 214, 2-amino-4-(6-chloro-8-fluoro-2-(((2R,7aS)-2-fluorotetrahydro-1H-pyrrolizin-7a(5H)-yl)methoxy)-4-(6-(3-methyl-1H-1,2,4-triazole-1-carbonyl)-9-oxa-2,6-diazaspiro[4.5]decan-2-yl)quinazolin-7-yl)-7-fluorobenzo[b]thiophene-3-carbonitrile]: the IC50 on KRAS G12D, at KRAS WT and at KRAS G12S was less than 5 µM each time.

Consider `Nc1nc2c(-c3c(Cl)cc4c(N5CC6(CCN6C(=O)n6cncn6)C5)nc(OC[C@@]56CCCN5C[C@H](F)C6)nc4c3F)ccc(F)c2s1` [Compound 273, (6-(7-(2-amino-7-fluorobenzo[d]thiazol-4-yl)-6-chloro-8-fluoro-2-(((2R,7aS)-2-fluorotetrahydro-1H-pyrrolizin-7a(5H)-yl)methoxy)quinazolin-4-yl)-1,6-diazaspiro[3.3]heptan-1-yl)(1H-1,2,4-triazol-1-yl)methanone], for which the IC50 on KRAS G12D, at KRAS WT and on KRAS G12S was less than 5 µM each time.

Consider `Nc1nc2c(-c3c(Cl)cc4c(N5CCC6(CCN6C(=O)n6cncn6)C5)nc(OC[C@@]56CCCN5C[C@H](F)C6)nc4c3F)ccc(F)c2s1` (stereo partly drawn) [Compound 264, (6-(7-(2-amino-7-fluorobenzo[d]thiazol-4-yl)-6-chloro-8-fluoro-2-(((2R,7aS)-2-fluorotetrahydro-1H-pyrrolizin-7a(5H)-yl)methoxy)quinazolin-4-yl)-1,6-diazaspiro[3.4]octan-1-yl)(1H-1,2,4-triazol-1-yl)methanone], for which the IC50 on KRAS G12D, at KRAS WT and on KRAS G12S was less than 5 µM throughout.

As for `C#Cc1c(F)ccc2cc(O)cc(-c3ncc4c(N5CCC6(CCN6C(=O)n6cncn6)C5)nc(OC[C@@]56CCCN5C[C@H](F)C6)nc4c3F)c12` (stereo partly drawn) [Compound 270, (6-(7-(8-ethynyl-7-fluoro-3-hydroxynaphthalen-1-yl)-8-fluoro-2-(((2R,7aS)-2-fluorotetrahydro-1H-pyrrolizin-7a(5H)-yl)methoxy)pyrido[4,3-d]pyrimidin-4-yl)-1,6-diazaspiro[3.4]octan-1-yl)(1H-1,2,4-triazol-1-yl)methanone], the IC50 on KRAS G12D, at KRAS WT and on KRAS G12S was less than 5 µM each time.
